Results published in patent US9000182B2, “2H-imidazol-4-amine compounds and their use as BACE inhibitors” (AstraZeneca AB, priority 2012, dated 2015).

Key:
[1] = target: T1, human β-Secretase (sBACE-Fc, soluble part AA 1-AA 460) (Homo sapiens (Human), UniProt P56817); test: TR-FRET assay; assay type: biochemical; settings: standard TR-FRET assay (values without footnote a)
Method: The β-secretase enzyme used in the TR-FRET is prepared as follows:
(§1) The enzyme (truncated form) was diluted to 6 μg/mL (stock 1.3 mg/mL) and the TruPoint BACE1 Substrate to 200 nM (stock 120 μM) in reaction buffer (NaAcetate, chaps, triton x-100, EDTA pH4.5). Enzyme and compound in dimethylsulphoxide (final DMSO concentration 5%) was mixed and pre-incubated for 10 minutes at RT. Substrate was then added and the reaction was incubated for 15 minutes at RT. The reaction was stopped with the addition of 0.35 vol Stop solution (NaAcetate, pH 9). The fluorescence of the product was measured on a Victor II plate reader with excitation wavelengths of 340-485 nm and emission wavelengths of 590-615 nm. […] The dimethylsulphoxide control, instead of test compound, defined the 100% activity level and 0% activity was defined by wells lacking enzyme (replaced with reaction buffer) or by a saturating dose of a known inhibitor, 2-amino-6-[3-(3-methoxyphenyl)phenyl]-3,6-dimethyl-5H-pyrimidin-4-one.

[2] = system: sAPPβ release in SH-SY5Y cells; test: sAPPβ release assay; assay type: cell-based; settings: 17 h incubation
Method: SH-SY5Y cells were cultured in DMEM/F-12 with Glutamax, 10% FCS and 1% non-essential amino acids and cryopreserved and stored at −140° C. at a concentration of 7.5-9.5×10^6 cells per vial. Thaw cells and seed at a conc. of around 10000 cells/well in DMEM/F-12 with Glutamax, 10% FCS and 1% non-essential amino acids to a 384-well tissue culture treated plate, […] cell susp/well. The cell plates were then incubated for 7-24 h at 37° C., 5% CO2. The cell medium was removed, followed by addition of 30 μL compound diluted in DMEM/F-12 with Glutamax, 10% FCS, 1% non-essential amino acids and 1% PeSt to a final conc. of 1% DMSO. The compounds were incubated with the cells for 17 h (overnight) at 37° C., 5% CO2. Meso Scale Discovery (MSD) plates were used for the detection of sAPPβ release. MSD sAPPβ plates were blocked in 1% BSA in Tris wash buffer (40 μL/well) for 1 h on shake at r.t. and washed 1 time in Tris wash buffer (40 μL/well). 20 μL of medium was transferred to the pre-blocked and washed MSD sAPPβ microplates, and the cell plates were further used in an ATP assay to measure cytotoxicity. The MSD plates were incubated with shaking at r.t. for 2 h and the media discarded. 10 μL detection antibody was added (1 nM) per well followed by incubation with shaking at r.t. for 2 h and then discarded. 40 μL Read Buffer was added per well and the plates were read in a SECTOR Imager.

[3] = target: T1, human β-Secretase (sBACE-Fc, soluble part AA 1-AA 460); test: Diluted TR-FRET assay; assay type: biochemical
Method: as §1, with “The enzyme (truncated form) was diluted to 6 μg/mL (stock 1.3 mg/mL) and the TruPoint BACE1 Substrate to 200 nM (stock 120 μM) in reaction buffer (NaAcetate, chaps, triton x-100, EDTA pH4.5).” left out, “Substrate was then added and the reaction was incubated for 15 minutes at RT.” left out

[4] = IC50 from the diluted FRET assay (footnote a): 50 times less enzyme, 6.5 h reaction time

T1 sequence (P56817 22-460): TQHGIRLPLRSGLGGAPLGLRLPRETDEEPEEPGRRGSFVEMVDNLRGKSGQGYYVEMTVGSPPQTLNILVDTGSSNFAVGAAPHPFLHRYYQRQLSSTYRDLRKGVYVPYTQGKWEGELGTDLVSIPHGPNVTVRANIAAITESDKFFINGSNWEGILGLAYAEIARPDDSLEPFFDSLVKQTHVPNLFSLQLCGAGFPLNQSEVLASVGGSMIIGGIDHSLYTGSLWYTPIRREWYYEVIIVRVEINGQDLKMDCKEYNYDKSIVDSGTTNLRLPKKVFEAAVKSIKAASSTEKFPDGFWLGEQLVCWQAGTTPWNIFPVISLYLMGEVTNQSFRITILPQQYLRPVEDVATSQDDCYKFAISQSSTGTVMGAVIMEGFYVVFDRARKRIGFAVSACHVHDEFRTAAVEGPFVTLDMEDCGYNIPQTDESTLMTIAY

Question: With `CC1=N[C@@]2(N=C1N)c1cc(Br)ccc1C[C@]21CC[C@@H](O)CC1` (single isomer, unassigned; isomer 1) [5, isomer 1] as the compound, how does the IC50 [1] read?
Answer: 270 nM

Question: And the IC50 [2]?
Answer: 96 nM

Question: With `CC1=NC2(N=C1N)c1cc(OCCCF)ccc1C[C@]21CC[C@@H](OC(C)C)CC1` (stereo partly drawn) [Example 17, (1r,4r)-6′-(3-Fluoropropoxy)-5″-methyl-4-(propan-2-yloxy)-3′H-dispiro[cyclohexane-1,2′-indene-1′,2″-imidazol]-4″-amine] as the compound, how does the IC50 [1] read?
Answer: 250 nM

Question: Which IC50 [2] does the source give for `CO[C@H]1CC[C@]2(CC1)Cc1ccc(OCCC(F)(F)F)cc1[C@@]21N=C(C)C(N)=N1` (single isomer, unassigned; isomer 1) [11, isomer 1] here?
Answer: 0.7 nM

Question: Which IC50 ([2]; Homo sapiens) does the source give for `CO[C@H]1CC[C@]2(CC1)Cc1ccc(OCCC(F)(F)F)cc1C21N=C(C)C(N)=N1` (stereo partly drawn) [Example 10, (1r,4r)-4-Methoxy-5″-methyl-6′-(3,3,3-trifluoropropoxy)-3′H-dispiro[cyclohexane-1,2′-indene-1′,2″-imidazol]-4″-amine] here?
Answer: 0.6 nM

Question: What does the source list for `CO[C@H]1CC[C@]2(CC1)Cc1ccc(OCC(C)F)cc1C21N=C(C)C(N)=N1` (stereo partly drawn) [Example 14, (1r,4r)-6′-(2-Fluoropropoxy)-4-methoxy-5″-methyl-3′H-dispiro[cyclohexane-1,2′-indene-1′,2″-imidazol]-4″-amine]?
Answer: IC50 [3]: 6.7 nM; IC50 ([2]; Homo sapiens): 2.5 nM

Question: How did the IC50 ([2]; Homo sapiens) turn out when `CC[C@@H](C)Oc1ccc2c(c1)C1(N=C(C)C(N)=N1)[C@]1(CC[C@H](OC)CC1)C2` (stereo partly drawn) [Example 18, (1r,4r)-6′-[(28)-Butan-2-yloxy]-4-methoxy-5″-methyl-3′H-dispiro[cyclohexane-1,2′-indene-1′,2″-imidazol]-4″-amine] was run?
Answer: 16 nM

Question: With `CC1=N[C@@]2(N=C1N)c1cc(-c3cc(Cl)cc(C#N)c3)ccc1C[C@]21CC[C@@H](O)CC1` (single isomer, unassigned; isomer 2) [15, isomer 2] as the compound, how does the IC50 [1] read?
Answer: 780 nM

Question: What about the IC50 [2] of the same compound?
Answer: 216 nM

Question: How did the IC50 [3, 4] turn out when `CC1=N[C@]2(N=C1N)c1cc(OCCCF)ccc1C[C@]21CC[C@@H](OC(F)F)CC1` (single isomer, unassigned; isomer 1) [13, isomer 1] was run?
Answer: 3 nM

Question: And the IC50 [2]?
Answer: 1.6 nM

Question: With `CO[C@H]1CC[C@]2(CC1)Cc1ccc(O)cc1[C@@]21N=C(C)C(N)=N1` [Example 19, (1r,1′R,4R)-4″-Amino-4-methoxy-5″-methyl-3′H-dispiro[cyclohexane-1,2′-indene-1′,2″-imidazol]-6′-ol] as the compound, how does the IC50 [1] read?
Answer: 1300 nM

Question: With `CO[C@H]1CC[C@]2(CC1)Cc1ccc(C#CC(C)C)cc1[C@]21N=C(C)C(N)=N1` (single isomer, unassigned; isomer 1) [9, isomer 1] as the compound, how does the IC50 [2] read?
Answer: 0.7 nM

Question: `CO[C@H]1CC[C@]2(CC1)Cc1ccc(C#CC(C)C)cc1C21N=C(C)C(N)=N1` (mixture of isomers) [Example 8, (1r,4r)-4-Methoxy-5″-methyl-6′-(3-methylbut-1-yn-1-yl)-3′H-dispiro[cyclohexane-1,2′-indene-1′,2″-imidazol]-4″-amine] was tested. Which IC50 ([2]; Homo sapiens) did it give?
Answer: 1.6 nM

Question: Which IC50 [1] does the source give for `CC1=N[C@@]2(N=C1N)c1cc(OCC(C)C)ccc1C[C@]21CC[C@@H](O)CC1` (single isomer, unassigned; isomer 1) [2, isomer 1] here?
Answer: 13 nM

Question: `CC1=NC2(N=C1N)c1cc(Br)ccc1C[C@]21CC[C@@H](OC(C)C)CC1` (stereo partly drawn) [Example 16, (1r,4r)-6′-Bromo-5″-methyl-4-(propan-2-yloxy)-3′H-dispiro[cyclohexane-1,2′-indene-1′,2″-imidazol]-4″-amine] was tested. Which IC50 [1] did it give?
Answer: 3700 nM

Question: For `CO[C@H]1CC[C@]2(CC1)Cc1ccc(C#CC3CCC3)cc1[C@]21N=C(C)C(N)=N1` (single isomer, unassigned; isomer 1) [7, isomer 1], which IC50 [2] is on record?
Answer: 2 nM

Question: What does the source list for `CO[C@H]1CC[C@]2(CC1)Cc1ccc(OCC(C)(F)F)cc1C21N=C(C)C(N)=N1` (stereo partly drawn) [Example 3, (1r,4r)-6′-(2,2-Difluoropropoxy)-4-methoxy-5″-methyl-3′H-dispiro[cyclohexane-1,2′-indene-1′,2″-imidazol]-4″-amine]?
Answer: IC50 [3]: 6.7 nM; IC50 ([2]; Homo sapiens): 2.4 nM

Question: Which results are given for `CC1=N[C@]2(N=C1N)c1cc(-c3cc(Cl)cc(C#N)c3)ccc1C[C@]21CC[C@@H](O)CC1` (single isomer, unassigned; isomer 1) [15, isomer 1]?
Answer: IC50 [3, 4]: 3.2 nM; IC50 [2]: 1.6 nM

Question: For `CO[C@H]1CC[C@]2(CC1)Cc1ccc(C#CC3CCC3)cc1C21N=C(C)C(N)=N1` (mixture of isomers) [Example 6, (1r,4r)-6′-(Cyclobutylethynyl)-4-methoxy-5″-methyl-3′H-dispiro[cyclohexane-1,2′-indene-1′,2″-imidazol]-4″-amine], which IC50 ([2]; Homo sapiens) is on record?
Answer: 2.1 nM

Question: Which IC50 [1] does the source give for `CC1=N[C@@]2(N=C1N)c1cc(OCCCF)ccc1C[C@]21CC[C@@H](OC(F)F)CC1` (single isomer, unassigned; isomer 2) [13, isomer 2] here?
Answer: 2900 nM
